Data published in article PMC4492731 (Pharmacology Research & Perspectives, 2015).
Like-named read-outs stand apart in the source and are kept apart here. Each block holds one compound with its values, some of them ahead of it.

Experiments:
[1] = type: in vivo, human; conditions: for concentration at 2 h: rifampin plasma concentration, Study 2, day 11, 2 h after drug intake, rifampin 600 mg q.d.; for PCI-45227 mean AUClast / PCI-45227 mean Cmax / PCI-45227 tmax, median (range): fasted
[2] = not given; remark: listed apart in the source
[3] = test system: Bruton’s tyrosine kinase (BTK); conditions: reversible binding; ref Parmar et al. [2014]; cited from earlier work
[4] = standard breakfast with GFJ; ref de Vries et al. [2015]; cited from earlier work
[5] = Study 2, ibrutinib 560 mg + rifampin 600 mg
[6] = Study 2, ibrutinib 560 mg alone
[7] = Study 1, ibrutinib 40 mg + ketoconazole 400 mg, fasted
[8] = Study 1, ibrutinib 120 mg alone, fasted
[9] = Study 1, ibrutinib + ketoconazole vs ibrutinib alone

concentration at 2 h ([1]; human, plasma, oral, mean ± SD): 9250 ± 4960 ng/mL
concentration at 2 h ([1]; human, plasma, oral, range): 289 to 18400 ng/mL
SMILES: CO[C@H]1/C=C/O[C@@]2(C)Oc3c(C)c(O)c4c(O)c(c(/C=N/N5CCN(C)CC5)c(O)c4c3C2=O)NC(=O)/C(C)=C\C=C\[C@H](C)[C@H](O)[C@@H](C)[C@@H](O)[C@@H](C)[C@H](OC(C)=O)[C@@H]1C [rifampin, reference compound]

ketoconazole plasma concentration, two participants with very low concentrations (Study 1, day 7, individual values): 231 ng/mL
SMILES: CC(=O)N1CCN(c2ccc(OCC3COC(Cn4ccnc4)(c4ccc(Cl)cc4Cl)O3)cc2)CC1 (stereo not drawn) [ketoconazole, reference compound]

effect of GFJ on tmax of PCI-45227 ([2]; Study 3): no effect
dose-normalized PCI-45227 concentrations and AUCs with or without GFJ ([2]; Study 3, oral ibrutinib): comparable
Cmax metabolite-to-parent ratio ([2]; Study 3, with GFJ): 0.32
Cmax metabolite-to-parent ratio ([2]; Study 3, without GFJ): 1.03
PCI-45227 mean AUClast [1, 5]: 374 ng·h/mL
PCI-45227 mean Cmax [1, 5]: 49.9 ng/mL
PCI-45227 tmax, median (range) [1, 5]: 3.00 h
PCI-45227 mean AUClast [1, 6]: 946 ng·h/mL
PCI-45227 mean Cmax [1, 6]: 70.0 ng/mL
PCI-45227 tmax, median (range) [1, 6]: 2.02 h
metabolite to parent ratio for Cmax ([1]; Study 2, ibrutinib + rifampin): 20.80
metabolite to parent ratio for Cmax ([1]; Study 2, ibrutinib alone): 2.09
PCI-45227 t1/2, mean (SD) [7]: 18.00 h
PCI-45227 tmax, median (range) [7]: 4.00 h
PCI-45227 DN_AUClast [8]: 304 ng·h/mL
PCI-45227 DN_Cmax [8]: 29.1 ng/mL
PCI-45227 t1/2, mean (SD) [8]: 11.41 h
PCI-45227 tmax, median (range) [8]: 2.00 h
mean metabolite to parent ratio for Cmax (Study 1, ibrutinib + ketoconazole): 0.05
decrease of PCI-45227 DN_AUClast with ketoconazole [9]: 1.2 times lower
decrease of PCI-45227 DN_Cmax with ketoconazole [9]: 2.6 times lower
mean metabolite to parent ratio for Cmax (Study 1, ibrutinib alone): 2.64
SMILES: Nc1ncnc2c1c(-c1ccc(Oc3ccccc3)cc1)nn2[C@@H]1CCCN(C(=O)C(O)CO)C1 (stereo partly drawn) [PCI-45227]
inhibitory activity toward BTK relative to ibrutinib [3]: approximately 15 times lower

AUCs of ibrutinib following i.v. administration with and without GFJ ([2]; Study 3, nonfasted, i.v. dose of 100 μg 13C6 PCI-32765): the same
AUC ([2]; human, in vivo, 560 mg): 529 ng·h/mL
AUC(0-inf) ([2]; human, in vivo, 560 mg): 643 ng·h/mL
AUC(0-inf) ([1]; human, plasma, oral, 560 mg): 300 ng·h/mL
mean DN_AUClast of ibrutinib (Study 1, ibrutinib 120 mg alone, day 1, fasted): 71.4 ng·h/mL
mean DN_Cmax of ibrutinib (Study 1, ibrutinib 120 mg alone, day 1, fasted, healthy men): 11.8 ng/mL
AUClast geometric mean [8]: 61 ng·h/mL
AUC (human, in vivo, 120 mg): 56 ng·h/mL
AUC(0-inf) (human, in vivo, 120 mg): 71 ng·h/mL
SMILES: C=CC(=O)N1CCC[C@@H](n2nc(-c3ccc(Oc4ccccc4)cc3)c3c(N)ncnc32)C1 [Ibrutinib, reference compound]
absolute oral bioavailability (F) [4]: 15.9%
